In US7705030B2, “Amino-5-(5-membered)hetero-arylimidazolone compounds and the use thereof for β-secretase modulation” (Wyeth LLC, priority 2005, dated 2010):

Legend:
[1] = target: human BACE1 (Homo sapiens, UniProt P56817); test: Fluorescent kinetic assay: Evaluation of BACE-1 Binding Affinity of Test Compounds; assay type: biochemical; conditions: 10 nM enzyme, 25 μM substrate WABC-6, 50 mM Na-Acetate pH 4.5, room temperature
Procedure: Evaluation of BACE-1 Binding Affinity of Test Compounds
Fluorescent Kinetic Assays
Final Assay Conditions: 10 nM human BACE1 (or 10 nM Murine BACE1, 1.5 nM human BACE2), 25 μM substrate (WABC-6, MW 1549.6, from AnaSpec), Buffer: 50 mM Na-Acetate, pH 4.5, 0.05% CHAPS, 25% PBS, room temperature. Na-Acetate was from Aldrich, Cat.# 24, 124-5, CHAPS was from Research Organics, Cat. # 1304C 1×, PBS was from Mediatech (Cellgro), Cat# 21-031-CV, peptide substrate Abz[…]pa was from AnaSpec, Peptide Name: WABC-6 Determination of stock substrate (Abz[…]pa) concentration: ˜25 mM stock solution is made in DMSO using the peptide weight and MW, and diluted to ˜25 μM (1:1000) in 1×PBS. Concentration is determined by absorbance at 354 nm using an extinction coefficient ε of 18172 M^−1 cm^−1, the concentration of stock substrate is corrected, and the substrate stock stored in small aliquots in −80° C. [Substrate Stock]=ABS^354 nm*10^6/18172 (in […]) The extinction coefficient ε^354 nm was adapted from TACE peptide substrate, which had the same quencher-fluorophore pair.
Determination of Stock Enzyme Concentration: the stock concentration of each enzyme is determined by absorbance at 280 nm using an ε of 64150 M^−1 cm^−1 for hBACE1 and MuBACE1, 62870 M^−1 cm^−1 for hBACE2 in 6 M Guanidinium Hydrochloride (from Research Organics, Cat. # 5134G-2), pH ˜6. The extinction coefficient ε^280 nm for each enzyme was calculated based on known amino acid composition and published extinction coefficients for Trp ([…]) and Tyr ([…]) residues (Anal. Biochem. 182, 319-326).
Dilution and mixing steps: total reaction volume: 100 μL
2× inhibitor dilutions in buffer A(66.7 mM Na-Acetate, pH 4.5, 0.0667% CHAPS) were prepared,
4× enzyme dilution in buffer A(66.7 mM Na-Acetate, pH 4.5, 0.0667% CHAPS) were prepared,
100 μM substrate dilution in 1×PBS was prepared, and
50 μL 2× Inhibitor, 25 μL 100 μM substrate are added to each well of 96-well plate (from DYNEX Technologies, VWR #: 11311-046), immediately followed by 25 μL 4× enzyme (added to the inhibitor and substrate mix), and the fluorescence readings are initiated.
Fluorescence Readings: Readings at λex 320 nm and λem 420 nm are taken every 40 sec for 30 min at room temperature and the linear slope for substrate cleavage rate (vi) determined.
Testing at least 10 different inhibitor concentrations is preferred.

Sequence of human BACE1 (P56817 46-501): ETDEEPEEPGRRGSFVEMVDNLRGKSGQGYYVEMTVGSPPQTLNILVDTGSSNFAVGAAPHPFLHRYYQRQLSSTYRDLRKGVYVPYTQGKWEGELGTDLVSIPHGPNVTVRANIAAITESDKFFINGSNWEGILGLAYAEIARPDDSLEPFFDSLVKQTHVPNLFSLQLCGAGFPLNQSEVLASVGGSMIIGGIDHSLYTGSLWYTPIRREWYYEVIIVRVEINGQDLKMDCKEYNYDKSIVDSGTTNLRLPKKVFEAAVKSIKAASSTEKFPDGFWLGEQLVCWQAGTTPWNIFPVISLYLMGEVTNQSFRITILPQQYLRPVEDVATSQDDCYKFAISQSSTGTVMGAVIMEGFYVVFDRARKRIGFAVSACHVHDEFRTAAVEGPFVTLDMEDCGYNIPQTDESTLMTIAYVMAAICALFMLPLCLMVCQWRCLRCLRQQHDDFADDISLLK

| SMILES | melting point | IC50 [1] |
| --- | --- | --- |
| CN1C(=O)C(c2cccc(-c3cc(C#N)ccc3F)c2)(c2cnn(CC(F)(F)F)c2)N=C1N (stereo not shown) [Example 86] | 118 to 120 °C | 110 to 1000 nM |
| CCC(=O)c1cc(C2(c3cccc(OCCC(C)(C)C)c3)N=C(N)N(C)C2=O)cn1CC (stereo not shown) [Example 134] | 93 °C | 110 to 1000 nM |
| CCOc1ccc(C2(c3cc(C(=O)NC)n(CC)c3)N=C(N)N(C)C2=O)cc1-c1cccnc1F (stereo not shown) [Example 128] | 148 to 150 °C | > 1000 nM |
| CC(C)Cn1cc(C2(c3cccc(-c4cccnc4F)c3)N=C(N)N(C)C2=O)cn1 (stereo not shown) [Example 3, 2-Amino-5-[3-(2-fluoropyridin-3-yl)phenyl]-5-(1-isobutyl-1H-pyrazol-4-yl)-3-methyl-3,5-dihydro-4H-imidazol-4-one] | 94 to 98 °C | 10 to 100 nM |
| CCC(CC)Cn1cc(C2(c3cccc(-c4cccnc4F)c3)N=C(N)N(C)C2=O)cn1 (stereo not shown) [Example 99] | 75 to 80 °C | 10 to 100 nM |
| COc1cccc(-c2cccc(C3(c4cnn(CC(F)(F)F)c4)N=C(N)N(C)C3=O)c2)c1 (stereo not shown) [Example 82] | 95 to 97 °C | 10 to 100 nM |
| CN1C(=O)C(c2cccc(-c3cccnc3F)c2)(c2cnn(CCC(C)(C)C)c2)N=C1N (stereo not shown) [Example 101] | 100 to 103 °C | 10 to 100 nM |
| COC(=O)c1cc(C2(c3ccc(F)c(-c4cncnc4)c3)N=C(N)N(C)C2=O)cn1CC(F)(F)F (stereo not shown) [Example 121] | 182 to 184 °C | 10 to 100 nM |
| COc1ccc(F)cc1-c1cccc(C2(c3cnn(CC(F)(F)F)c3)N=C(N)N(C)C2=O)c1 (stereo not shown) [Example 85] | 104 to 106 °C | 110 to 1000 nM |
| CN1C(=O)C(c2cccc(-c3cccnc3F)c2)(c2cnn(CC(F)(F)F)c2)N=C1N (stereo not shown) [Example 69, 2-amino-5-[3-(2-fluoropyridin-3-yl)phenyl]-3-methyl-5-[1-(2,2,2-trifluoroethyl)-1H-pyrazol-4-yl]-3,5-dihydro-4H-imidazol-4-one] | 104 to 106 °C | 10 to 100 nM |
| CCC(=O)Nc1cccc(C2(c3cc(C(=O)CC)n(CC)c3)N=C(N)N(C)C2=O)c1 (stereo not shown) [Example 130, N-{3-[2-amino-4-(1-ethyl-5-propionyl-1H-pyrrol-3-yl)-1-methyl-5-oxo-4,5-dihydro-1H-imidazol-4-yl]-phenyl}-propionamide] | 120 to 141 °C | 110 to 1000 nM |
| CCC(=O)c1cc(C2(c3cccc(OCC(C)C)c3)N=C(N)N(C)C2=O)cn1CC (stereo not shown) [Example 138] | 78 °C | 10 to 100 nM |
| COC(=O)c1cc(C2(c3ccc(F)c(-c4cccnc4F)c3)N=C(N)N(C)C2=O)cn1CCF (stereo not shown) [Example 122] | 127 to 128 °C | 10 to 100 nM |
| CN1C(=O)C(c2cccc(-c3cncnc3)c2)(c2cnn(CCC3CCCCC3)c2)N=C1N (stereo not shown) [Example 107] | 102 to 105 °C | 10 to 100 nM |
| CC(C)OC(=O)c1cc(C2(c3ccc(F)c(-c4cccnc4F)c3)N=C(N)N(C)C2=O)cn1CCF (stereo not shown) [Example 124] | 117 to 118 °C | 110 to 1000 nM |
| CN1C(=O)C(c2cccc(OCC3CC3)c2)(c2cnn(CC(F)(F)F)c2)N=C1N (stereo not shown) [Example 71, 2-amino-5-[3-(cyclopropylmethoxy)phenyl]-3-methyl-5-[1-(2,2,2-trifluoroethyl)-1H-pyrazol-4-yl]-3,5-dihydro-4H-imidazol-4-one] | 78 to 80 °C | 110 to 1000 nM |
| CN1C(=O)C(c2cc[nH]c2)(c2cccc(OCc3ccccc3)c2)N=C1N (stereo not shown) [Example 58, 2-amino-5-(3-benzyloxyphenyl)-5-(1H-pyrrol-3-yl)-3-methyl-3,5-dihydro-4H-imidazol-4-one] | 98 to 100 °C | > 1000 nM |
| CCCCOc1cccc(C2(c3cc(C(=O)CC)n(CC)c3)N=C(N)N(C)C2=O)c1 (stereo not shown) [Example 136] | 76 °C | 110 to 1000 nM |
| COC(=O)c1cc([C@@]2(c3ccc(F)c(-c4cncnc4)c3)N=C(N)N(C)C2=O)cn1CCF [Example 119B, Methyl 4-[(4R)2-Amino-4-(4-fluoro-3-pyrimidinyl-5-phenyl)-1-methyl-5-oxo-4,5-dihydro-1H-imidazol-4-yl]-1-(2-fluoroethyl)-1H-pyrrole-2-carboxylate] | 186 to 188 °C | 110 to 1000 nM |
| CN1C(=O)C(c2cccc(-c3cncnc3)c2)(c2cnn(CCC(C)(C)C)c2)N=C1N (stereo not shown) [Example 106] | 93 to 96 °C | 10 to 100 nM |
| CCc1cc(C2(c3cccc(-c4cncnc4)c3)N=C(N)N(C)C2=O)cs1 (stereo not shown) [Example 29] | 144 to 146 °C | 10 to 100 nM |
| CCc1cc(C2(c3cccc(-c4cncnc4)c3)N=C(N)N(C)C2=O)c(C)s1 (stereo not shown) [Example 31] | 128 to 134 °C | 110 to 1000 nM |

The next lines start with the values.

| melting point | IC50 [1] | SMILES |
| --- | --- | --- |
| 110 to 112 °C | 110 to 1000 nM | CCn1cc(C2(c3cccc(-c4cccnc4F)c3)N=C(N)N(C)C2=O)cc1C(=O)NCc1ccc(F)cc1 (stereo not shown) [Example 166] |
| 98 to 99 °C | > 1000 nM | CC(C)NCc1cc(C2(c3cccc(-c4cccnc4F)c3)N=C(N)N(C)C2=O)cn1CCF (stereo not shown) [Example 236] |
| 104 to 106 °C | 10 to 100 nM | CCn1cc(C2(c3cccc(-c4cccnc4F)c3)N=C(N)N(C)C2=O)cc1C(=O)c1ccccc1 (stereo not shown) [Example 170] |
| 127 to 128 °C | 110 to 1000 nM | CCn1cc(C2(c3cccc(-c4cccnc4F)c3)N=C(N)N(C)C2=O)cc1C(=O)NC1CCCC1 (stereo not shown) [Example 162] |
| 115 to 121 °C | 110 to 1000 nM | CCC(O)c1cc(C2(c3cccc(-c4cccnc4F)c3)N=C(N)N(C)C2=O)cn1CC (stereo not shown) [Example 240, 2-Amino-5-[1-ethyl-5-(1-hydroxypropyl)-1H-pyrrol-3-yl]-5-[3-(2-fluoropyridin-3-yl)phenyl]-3-methyl-3,5-dihydro-4H-imidazol-4-one] |
| 126 to 128 °C | 10 to 100 nM | CCC(=O)c1cc(C2(c3cccc(-c4cccnc4F)c3)N=C(N)N(C)C2=O)cn1CC (stereo not shown) [Example 155] |
| 98 to 100 °C | 10 to 100 nM | CCn1cc(C2(c3cccc(-c4cccnc4F)c3)N=C(N)N(C)C2=O)cc1C(=O)C1CC1 (stereo not shown) [Example 172] |
| 107 to 108 °C | 10 to 100 nM | CCC(=O)c1cc(C2(c3cccc(-c4ccc(F)c(Cl)c4)c3)N=C(N)N(C)C2=O)cn1CC(F)(F)F (stereo not shown) [Example 205] |
| 93 to 96 °C | 10 to 100 nM | CCC(=O)c1cc(C2(c3cccc(-c4cccnc4F)c3)N=C(N)N(C)C2=O)cn1Cc1ccccc1 (stereo not shown) [Example 181] |
| 91 to 94 °C | 10 to 100 nM | CCC(=O)c1cc(C2(c3cccc(-c4cccnc4F)c3)N=C(N)N(C)C2=O)cn1CCCC(F)(F)F (stereo not shown) [Example 176] |
| 94 to 100 °C | 10 to 100 nM | CCn1cc(C2(c3cccc(-c4cccnc4F)c3)N=C(N)N(C)C2=O)cc1C(=O)C1CCCCC1 (stereo not shown) [Example 171] |
| 225 to 226 °C | 10 to 100 nM | CCC(=O)c1cc(C2(c3ccc(F)c(-c4cncnc4)c3)N=C(N)N(C)C2=O)cn1CC(F)(F)F (stereo not shown) [Example 208] |
| 210 to 211 °C | 10 to 100 nM | CCC(C)C(=O)c1cc(C2(c3cccc(-c4cccnc4F)c3)N=C(N)N(C)C2=O)cn1CC (stereo not shown) [Example 174] |
